Legend:
human hepatocytes = assay: Estimation of covalent binding of small molecules to proteins in hepatocytes (fCVB); type: in vitro ADME; conditions: binding of 3H- or 14C-labelled compound to cryopreserved human hepatocytes
Method: Estimation of Covalent Binding of Small Molecules to Proteins in Hepatocytes:
The assay is based on the modification of a published method (Day, S. H.; Mao, A.; White, R.; Schulz-Utermoehl, T.; Miller, R.; Beconi, M. G. (2005) A semi-automated method for measuring the potential for protein covalent binding in drug discovery. J. Pharmacol. Toxicol. Methods 52, 278-285.). Briefly, cryopreserved human hepatocytes are incubated in the presence of radiolabeled drug candidate in 24-well plates for a pre-determined period to allow sufficient turnover of the parent compound. Following the incubation period, samples are taken out and quenched by cold acetone in order to facilitate precipitation of proteins. […] After solubilization of proteins collected on filter papers, radioactive content and amount of protein is determined to give an estimate of pmol equivalent drug molecule bound per mg protein. In addition to assessing the extent of covalent binding, the turnover of the parent drug is quantified to give an estimate of fraction of metabolites leading to covalent binding (fCVB).
One aspect of the metabolic profile is the formation of reactive metabolites, where compounds of this invention in general are less prone to form such reactive metabolites. […] An fCVB value can then be calculated.

[1] = target: Melanin Concentrating Hormone Receptor 1 (MCHR1) (Homo sapiens (Human), UniProt Q99705); assay: MCHR1 receptor activation assay (GTPγ35S); type: biochemical
Chain of Melanin Concentrating Hormone Receptor 1 (MCHR1) (Q99705 whole entry): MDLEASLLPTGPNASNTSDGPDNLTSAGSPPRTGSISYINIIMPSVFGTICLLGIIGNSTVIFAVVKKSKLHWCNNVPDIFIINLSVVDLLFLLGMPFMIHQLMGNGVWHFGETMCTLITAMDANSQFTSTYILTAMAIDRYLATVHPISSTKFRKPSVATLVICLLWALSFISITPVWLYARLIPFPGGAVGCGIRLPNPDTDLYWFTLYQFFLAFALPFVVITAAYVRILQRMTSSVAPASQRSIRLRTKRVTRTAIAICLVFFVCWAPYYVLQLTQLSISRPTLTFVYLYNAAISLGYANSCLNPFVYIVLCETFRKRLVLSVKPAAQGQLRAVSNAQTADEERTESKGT

Structure (SMILES)	fCVB value (fraction of metabolites leading to covalent binding) (human hepatocytes)	IC50 [1]
COc1ccc(-c2nnc(C(=O)N3CC(Oc4ccc(CN5CC6(CCOC6)C5)cc4)C3)o2)cc1 [Example 5, (3-(4-(6-oxa-2-azaspiro[3.4]octan-2-ylmethyl)phenoxy)azetidin-1-yl)(5-(4-methoxyphenyl)-1,3,4-oxadiazol-2-yl)methanone]	0.0069	19 nM
O=C(c1nnc(-c2ccccc2)o1)N1CC(Oc2ccc(CN3CCC4(CCOC4)C3)cc2)C1 (centres unmarked) [Example 6, (3-(4-(2-oxa-7-azaspiro[4.4]nonan-7-ylmethyl)phenoxy)azetidin-1-yl)(5-phenyl-1,3,4-oxadiazol-2-yl)methanone]	–	19 nM
Cc1cc(OC2CN(C(=O)c3nnc(-c4ccccc4)o3)C2)ccc1CN1CC2(CCOC2)C1 [Example 9, (3-(4-(6-oxa-2-azaspiro[3.4]octan-2-ylmethyl)-3-methylphenoxy)azetidin-1-yl)(5-phenyl-1,3,4-oxadiazol-2-yl)methanone]	–	15 nM
Cc1cc(OC2CN(C(=O)c3nnc(-c4ccccc4)o3)C2)ccc1CN1CCC2(CCOC2)C1 (centres unmarked) [Example 10, (3-(4-(2-oxa-7-azaspiro[4.4]nonan-7-ylmethyl)-3-methylphenoxy)azetidin-1-yl)(5-phenyl-1,3,4-oxadiazol-2-yl)methanone]	–	18 nM
Cc1cc(OC2CN(C(=O)c3nnc(-c4ccccc4)o3)C2)ccc1CN1CC2(CCCO2)C1 [Example 11, (3-(4-(5-oxa-2-azaspiro[3.4]octan-2-ylmethyl)-3-methylphenoxy)azetidin-1-yl)(5-phenyl-1,3,4-oxadiazol-2-yl)methanone]	–	15 nM
O=C(c1nnc(-c2ccccc2)o1)N1CC(Oc2ccc(CN3CCCC34COC4)cc2)C1 [Example 13, (3-(4-(2-oxa-5-azaspiro[3.4]octan-5-ylmethyl)phenoxy)azetidin-1-yl)(5-phenyl-1,3,4-oxadiazol-2-yl)methanone]	–	70 nM
COc1ccc(-c2nnc(C(=O)N3CC(Oc4ccc(CN5CCCC56CCOC6)cc4)C3)o2)cc1 (centres unmarked) [Example 14, (3-(4-(7-oxa-1-azaspiro[4.4]nonan-1-ylmethyl)phenoxy)azetidin-1-yl)(5-(4-methoxyphenyl)-1,3,4-oxadiazol-2-yl)methanone]	–	23 nM
O=C(c1nnc(-c2ccccc2)o1)N1CC(Oc2ccc(CN3CCCC34CCOC4)cc2)C1 (centres unmarked) [Example 15, (3-(4-(7-oxa-1-azaspiro[4.4]nonan-1-ylmethyl)phenoxy)azetidin-1-yl)(5-phenyl-1,3,4-oxadiazol-2-yl)methanone]	–	58 nM
COc1cc(OC2CN(C(=O)c3nnc(-c4ccccc4)o3)C2)ccc1CN1CCCC12COC2 [Example 16, (3-(4-(2-oxa-5-azaspiro[3.4]octan-5-ylmethyl)-3-methoxyphenoxy)azetidin-1-yl)(5-phenyl-1,3,4-oxadiazol-2-yl)methanone]	–	34 nM
COc1cc(CN2CCCC23COC3)ccc1OC1CN(C(=O)c2nnc(-c3ccccc3)o2)C1 [Example 17, (3-(4-(2-oxa-5-azaspiro[3.4]octan-5-ylmethyl)-2-methoxyphenoxy)azetidin-1-yl)(5-phenyl-1,3,4-oxadiazol-2-yl)methanone]	–	420 nM
COc1cc(CN2CCCC23COC3)ccc1OC1CN(C(=O)c2nnc(-c3ccc(C(F)F)cc3)o2)C1 [Example 18, (3-(4-(2-oxa-5-azaspiro[3.4]octan-5-ylmethyl)-2-methoxyphenoxy)azetidin-1-yl)(5-(4-(difluoromethyl)phenyl)-1,3,4-oxadiazol-2-yl)methanone]	–	150 nM
COc1cc(OC2CN(C(=O)c3nnc(-c4ccc(C(F)F)cc4)o3)C2)ccc1CN1CCCC12COC2 [Example 19, (3-(4-(2-oxa-5-azaspiro[3.4]octan-5-ylmethyl)-3-methoxyphenoxy)azetidin-1-yl)(5-(4-(difluoromethyl)phenyl)-1,3,4-oxadiazol-2-yl)methanone]	–	38 nM
O=C(c1nnc(-c2ccccc2)o1)N1CC(Oc2ccc(CN3CCC4(CCCO4)C3)cc2)C1 (centres unmarked) [Example 22, (3-(4-(1-Oxa-7-azaspiro[4.4]nonan-7-ylmethyl)phenoxy)azetidin-1-yl)(5-phenyl-1,3,4-oxadiazol-2-yl)methanone]	–	23 nM

Source: US8685958B2, “Therapeutic agents” (AstraZeneca AB, priority 2011, dated 2014)
